Experimental data published in patent US9359341B2, “Aldehyde derivative of substitute oxazolidinones” (WANBURY LTD., priority 2012, dated 2016).

Key:
[1] = In vitro stability in mouse plasma; assay type: in vitro ADME
Procedure: (§1) The final concentration of the test compound in the assay is 5 micromolar. […] C. The 100 microliters of aliquot at time point was removed and diluted with ice cold acetonitrile containing IS (200.mu·L) to stop the reactions. Samples are centrifuged at 10,000 RPM for 5 minutes to precipitate proteins. Supernatants are transferred to micro centrifuge tubes and stored at −20° C. for analysis of LC/MS/MS. The percent parent remaining of the test substance is calculated as ratio of peak area at each time point to peak area ratio at zero min, multiplied by 100.
(§2) API 4000, ESI Agilent 1100 column: Gemini Nx 100 mm×4.6 mm 5.1; column temperature: 30° C.; eluent A: 0.1% formic acid in water, eluent B: acetonitrile; gradient: 0-2.5 min 95% A, 5% B; 2.5-2.6 min 5% A, 95% B; 2.6-4.2 min 95% A, 5% B; flow rate: 0.8 ml/min; ESI. Q1:464.098, Q3:144.255

[2] = In vitro liver microsomal stability assay (mouse); assay type: in vitro ADME; details: mouse liver microsomes
Procedure: (§3) Liver microsomal stability assays are conducted at 1 mg per mL liver microsome protein with an NADPH in phosphate buffer (100 mM, pH 7.4). Test compounds (compound of formula B of the invention) are prepared as solutions in 20% methanol-water and added to the assay mixture (final assay concentration 1 μM) and incubated at 37° C. Aliquots (100.μ·L) are taken out at times 0, 15, and 30 minutes, and diluted with ice cold acetonitrile containing IS (200.mu·L) to stop the reactions. Samples are centrifuged at 10,000 RPM for 5 minutes to precipitate proteins. Supernatants are transferred to micro centrifuge tubes and stored at −20° C. for analysis of LC/MS/MS. The percent parent remaining of the test substance is calculated as Ratio of peak area at each time point to peak area ratio at zero min, multiplied by 100. The compound formula (B) is converted to Rivaroxaban in microsomal assay.

[3] = In vitro stability in human plasma; assay type: in vitro ADME
Procedure: as §1, §2

CYP1A2 = CYP1A2 (Homo sapiens (Human), UniProt P05177); test: CYP inhibition assay; assay type: in vitro ADME; details: pooled human liver microsomes; extrapolated IC50 derived from 3 μM; read-out: IC50 (μM) of CYP isoforms, 1A2
Sequence of CYP1A2 (P05177 whole entry, canonical isoform): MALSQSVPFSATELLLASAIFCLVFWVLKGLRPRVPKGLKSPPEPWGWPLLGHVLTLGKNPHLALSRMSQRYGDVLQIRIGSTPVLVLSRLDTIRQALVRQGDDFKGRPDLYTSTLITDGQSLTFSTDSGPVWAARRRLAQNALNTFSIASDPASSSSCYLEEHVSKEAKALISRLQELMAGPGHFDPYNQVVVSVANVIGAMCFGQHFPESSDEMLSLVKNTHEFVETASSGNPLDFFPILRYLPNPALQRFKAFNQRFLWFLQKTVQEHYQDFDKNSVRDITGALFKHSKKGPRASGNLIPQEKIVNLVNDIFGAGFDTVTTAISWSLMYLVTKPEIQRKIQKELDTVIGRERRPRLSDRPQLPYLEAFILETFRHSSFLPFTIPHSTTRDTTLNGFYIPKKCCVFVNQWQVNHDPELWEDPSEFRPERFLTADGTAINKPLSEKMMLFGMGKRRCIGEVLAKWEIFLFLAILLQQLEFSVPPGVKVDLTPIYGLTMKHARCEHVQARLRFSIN
Procedure: (§4) The ability of substances to inhibit CYP1A2, CYP2C9, CYP2D6, CYP2C19, CYP2J2 and CYP3A4 in humans was investigated with pooled human liver microsomes as enzyme source in the presence of standard substrates (see below) which form CYP-isoform-specific metabolites.
(§5) Standard incubation mixtures comprise NADPH and substrates in 100 mM phosphate buffer (pH 7.4) in a total volume of 200 μl. Test compound are dissolved in acetonitrile. Incubated with pooled human liver microsomes at 37° C. for a defined time. The reactions are stopped by adding 100 μl of acetonitrile in which a suitable internal standard is always present. Precipitated proteins are removed by centrifugation, and the supernatants analyzed by LC-MS/MS.

[4] = In vitro liver microsomal stability assay (human); assay type: in vitro ADME; details: human liver microsomes
Procedure: as §3

[5] = In vitro liver microsomal stability assay (rat); assay type: in vitro ADME; details: rat liver microsomes
Procedure: as §3

CYP2C9 = CYP2C9 (Homo sapiens (Human), UniProt P11712); test: CYP inhibition assay; assay type: in vitro ADME; details: pooled human liver microsomes; extrapolated IC50 derived from 3 μM; read-out: IC50 (μM) of CYP isoforms, 2C9
Sequence of CYP2C9 (P11712 whole entry, canonical isoform): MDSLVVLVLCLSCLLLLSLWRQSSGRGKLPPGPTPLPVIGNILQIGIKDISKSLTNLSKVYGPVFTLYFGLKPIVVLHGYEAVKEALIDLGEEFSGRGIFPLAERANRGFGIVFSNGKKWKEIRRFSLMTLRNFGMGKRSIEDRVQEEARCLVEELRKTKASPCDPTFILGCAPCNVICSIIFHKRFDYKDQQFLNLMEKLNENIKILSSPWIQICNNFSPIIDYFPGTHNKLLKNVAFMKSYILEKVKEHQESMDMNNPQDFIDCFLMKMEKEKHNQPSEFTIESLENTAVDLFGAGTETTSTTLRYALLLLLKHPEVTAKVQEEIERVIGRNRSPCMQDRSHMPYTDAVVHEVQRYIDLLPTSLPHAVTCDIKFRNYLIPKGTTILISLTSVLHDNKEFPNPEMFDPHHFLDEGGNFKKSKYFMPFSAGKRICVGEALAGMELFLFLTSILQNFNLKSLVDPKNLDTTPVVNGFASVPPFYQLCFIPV
Procedure: as §4
as §5, with “LC-MS/MS. The data represents the extrapolated IC50 (μM) concentration derived from 3 μM.” for “LC-MS/MS.”

CYP2J2 = CYP2J2 (Homo sapiens (Human), UniProt P51589); test: CYP inhibition assay; assay type: in vitro ADME; details: pooled human liver microsomes; extrapolated IC50 derived from 3 μM
Sequence of CYP2J2 (P51589 whole entry): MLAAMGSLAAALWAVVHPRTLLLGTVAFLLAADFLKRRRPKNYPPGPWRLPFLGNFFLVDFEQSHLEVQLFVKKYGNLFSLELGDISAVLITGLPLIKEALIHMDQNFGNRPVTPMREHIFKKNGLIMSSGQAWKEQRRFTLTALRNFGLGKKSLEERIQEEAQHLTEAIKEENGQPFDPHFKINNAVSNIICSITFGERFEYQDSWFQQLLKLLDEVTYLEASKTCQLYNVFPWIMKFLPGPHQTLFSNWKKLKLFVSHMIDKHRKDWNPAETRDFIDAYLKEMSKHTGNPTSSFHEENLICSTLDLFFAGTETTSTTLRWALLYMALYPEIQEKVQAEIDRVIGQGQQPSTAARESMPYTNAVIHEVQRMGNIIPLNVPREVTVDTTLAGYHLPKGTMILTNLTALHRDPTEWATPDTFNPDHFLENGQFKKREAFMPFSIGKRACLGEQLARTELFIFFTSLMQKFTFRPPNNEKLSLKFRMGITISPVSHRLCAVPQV
Procedure: as §4
as §5, with “LC-MS/MS. The data represents the extrapolated IC50 (μM) concentration derived from 3 μM.” for “LC-MS/MS.”

CYP2D6 = CYP2D6 (Homo sapiens (Human), UniProt P10635); test: CYP inhibition assay; assay type: in vitro ADME; details: pooled human liver microsomes; extrapolated IC50 derived from 3 μM; read-out: IC50 (μM) of CYP isoforms, 2D6
Sequence of CYP2D6 (P10635 whole entry, canonical isoform): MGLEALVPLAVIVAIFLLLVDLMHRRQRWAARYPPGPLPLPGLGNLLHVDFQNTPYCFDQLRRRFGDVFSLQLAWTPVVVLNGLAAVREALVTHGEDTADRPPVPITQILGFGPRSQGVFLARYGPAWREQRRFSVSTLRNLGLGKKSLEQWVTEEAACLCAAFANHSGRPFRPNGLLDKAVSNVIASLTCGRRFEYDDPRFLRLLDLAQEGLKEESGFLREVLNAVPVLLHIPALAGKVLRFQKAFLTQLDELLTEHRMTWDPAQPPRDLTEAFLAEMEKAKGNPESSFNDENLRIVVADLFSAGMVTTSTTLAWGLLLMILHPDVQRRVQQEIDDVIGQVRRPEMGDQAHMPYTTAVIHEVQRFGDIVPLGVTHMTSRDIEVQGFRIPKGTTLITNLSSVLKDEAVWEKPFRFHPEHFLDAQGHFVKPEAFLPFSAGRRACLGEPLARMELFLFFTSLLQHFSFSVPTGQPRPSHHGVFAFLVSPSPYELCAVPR
Procedure: as §4
as §5, with “LC-MS/MS. The data represents the extrapolated IC50 (μM) concentration derived from 3 μM.” for “LC-MS/MS.”

CYP2C19 = CYP2C19 (Homo sapiens (Human), UniProt P33261); test: CYP inhibition assay; assay type: in vitro ADME; details: pooled human liver microsomes; extrapolated IC50 derived from 3 μM; read-out: IC50 (μM) of CYP isoforms, 2C19
Sequence of CYP2C19 (P33261 whole entry, canonical isoform): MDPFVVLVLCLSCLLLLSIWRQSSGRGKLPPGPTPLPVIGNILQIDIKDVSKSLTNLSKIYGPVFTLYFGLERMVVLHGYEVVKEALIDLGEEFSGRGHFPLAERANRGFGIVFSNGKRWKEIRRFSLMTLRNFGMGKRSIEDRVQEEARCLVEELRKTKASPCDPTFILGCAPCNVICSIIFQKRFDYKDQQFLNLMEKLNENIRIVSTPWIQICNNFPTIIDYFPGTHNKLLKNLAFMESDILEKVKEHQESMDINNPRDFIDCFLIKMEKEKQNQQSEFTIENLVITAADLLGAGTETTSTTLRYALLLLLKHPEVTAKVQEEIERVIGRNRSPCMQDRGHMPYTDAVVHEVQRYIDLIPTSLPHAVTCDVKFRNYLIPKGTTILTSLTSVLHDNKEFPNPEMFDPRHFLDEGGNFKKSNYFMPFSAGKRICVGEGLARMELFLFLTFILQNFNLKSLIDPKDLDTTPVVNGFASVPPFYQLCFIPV
Procedure: as §4
as §5, with “LC-MS/MS. The data represents the extrapolated IC50 (μM) concentration derived from 3 μM.” for “LC-MS/MS.”

[6] = Intravenous and oral excretion profile in Wistar rats; assay type: in vivo; details: for Mean (ng) Urine: IV 1 mg/Kg, rivaroxaban in urine
Procedure: On the day before administration of the substance, a catheter for obtaining blood is implanted in the jugular vein of the experimental animals (male Wistar rats, body weight 200-250 g) under Isoflurane. anesthesia.
Urine and faeces are taken collected from metabolic cages over the course of 144 h after administration of the substance. The administration volume is 10 ml/kg for oral and 1 ml/kg for IV in male Wistar rats. Intravenous administration is via a formulation of 2% N—N Dimethyl acetamide/ethanol 10%/PEG400 (30%)/water for IV injection (58%) and via Tween80/PEG400/sterile water in the case of oral administration. Urine and faeces collection is 0-4, 4-8, 8-24, 24-48, 48-72, 72-96, 96-120, 120-144 in the case of IV and for oral administration.
Urine and faeces was processed and IS containing Acetonitrile is added to a defined urine/faeces and precipitated. After centrifugation, compound formula (B) and, where appropriate, known cleavage products of the compound formula (B) in the supernatant are determined quantitatively using a suitable LC/MS-MS method.
The measured urine and faeces concentrations are used to calculate parameters of the test substance and of the active ingredient compound (A) liberated there from, such as AUC and Cmax.
Acetonitrile containing IS is added to the study samples, calibration samples and QCs, and the protein is precipitated using acetonitrile. Vortexed and centrifuged and the supernatant is injected by LC-MS/MS (API 4000, AB Sciex). Chromatographic separation is carried out on an Shimadzu UFLC. The injection volume is 10 μl. The separation column used is a Phenomenex Gemini NX 4.6×5μ. 100 mm, adjusted to a temperature of 30° C. A binary mobile phase gradient at 800.mu·l/min is used (A: 0.1% formic acid in water, B: acetonitrile: API 4000, ESI Agilent 1100 column: Gemini Nx 100 mm×4.6 mm 5.μ; column temperature: 30° C.; eluent A: 0.1% formic acid in water, eluent B: acetonitrile; gradient: 0-2.5 min 95% A, 5% B; 2.5-2.6 min 5% A, 95% B; 2.6-4.2 min 95% A, 5% B; flow rate: 0.8 ml/min; ESI. Q1:464.098, Q3:144.255 The temperature of the Turbo V ion source is 500° C. The following MS instrument parameters are used: curtain gas 20 units, ion spray voltage 5 kV, gas 1 50 units gas 2 50 units, CAD gas 6 units. The substances are quantified by peak heights or areas using extracted ion chromatograms of specific MRM experiments.

[7] = In vitro stability in rat plasma; assay type: in vitro ADME
Procedure: as §1, §2

O=C(NC[C@H]1CN(c2ccc(N3CCOCC3=O)cc2)C(=O)O1)c1ccc(Cl)s1 [Rivaroxaban, 5-chloro-N-({(5S)-2-oxo-3-[4-(3-oxomorpholin-4-yl)phenyl]-1,3-oxazolidin-5-yl}methyl)thiophene-2-carboxamide]
% Parent remaining(Mouse) ([1]; 0 min): 100% | % Parent remaining(Mouse) ([1]; 30 min): 100% | % Parent remaining(Mouse) ([1]; 60 min): 100% | % metabolised [2]: 99.98% | Observation (metabolism; for Test Product: of the formed rivaroxaban) [2]: High | % Parent remaining(Mouse) ([2]; 0 min): 100% | % Parent remaining(Mouse) ([2]; 15 min): 0.03% | % Parent remaining(Mouse) ([2]; 30 min): 0.02% | Conversion: unchanged, stable in plasma [3]: 99.99%, | % Parent remaining (Human) ([3]; 0 min): 100% | % Parent remaining (Human) ([3]; 30 min): 100% | % Parent remaining (Human) ([3]; 60 min): 99.68% | IC50 (CYP1A2): 18.9 µM | % metabolised [4]: 99.99% | Observation (metabolism; for Test Product: of the formed rivaroxaban) [4]: High | % Parent remaining (Human) ([4]; 0 min): 100% | % Parent remaining (Human) ([4]; 15 min): 0.01% | % Parent remaining (Human) ([4]; 30 min): 0.01% | % metabolised [5]: 99.98% | Observation (metabolism; for Test Product: of the formed rivaroxaban) [5]: High | % Parent remaining(rat) ([5]; 0 min): 100% | % Parent remaining(rat) ([5]; 15 min): 0.01% | % Parent remaining(rat) ([5]; 30 min): 0.02% | IC50 (CYP2C9): 16.7 µM | IC50 (μM) of CYP isoforms, 2J2 (CYP2J2): No inhibition | IC50 (CYP2D6): 13.2 µM | IC50 (CYP2C19): 13.2 µM | Mean (ng) Urine ([6]; 120 h): BLQ | Mean (ng) Urine ([6]; 144 h): BLQ | concentration at 144 h ([6]; male, Wistar, rat, faeces, iv, 1 mg/kg): 16.8 ng/g | Conversion: unchanged, stable in plasma [7]: 88.4%, | % Parent remaining(rat) ([7]; 0 min): 100% | % Parent remaining(rat) ([7]; 30 min): 82.35% | % Parent remaining(rat) ([7]; 60 min): 88.4%
